From ChEMBL document CHEMBL1201862, “PubChem BioAssay data set” (2004) come the findings set out here.

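1) Cells in 96-well plates. 2) Compound, 48 h, 5 concentrations. 3) Linear interpolation between surrounding doses. 4) Unreached endpoint = highest concentration. The concentration for 50% growth inhibition is given as GI50.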 Activity calls are given as the source filed them. No stated cut-off is given here; in the data, active = GI50 up to about 1.1 µM and inactive = higher.

Test systems include COLO 205; DU-145; EKVX; HCC 2998; HOP-62; KM12; MDA-MB-231; NCI-H23; NCI-H460; NCI-H522; OVCAR-4; RPMI-8226; SF-268; SK-MEL-2; SK-MEL-5; SN12C; SW-620; T47D; TK-10; UACC-62.
Assay in all cases: DTP human tumour cell line panel, 48 h

For `CO/N=C(\C)c1ccc(Nc2c3ccccc3nc3occc23)cc1`, the GI50 in the assay on COLO 205 is 0.302 µM (active); in the assay with DU-145, 1.07 µM (active); in the assay with EKVX, 3.74 µM (inactive); in the assay with HCC 2998 it was 0.322 µM (active); in the assay on HOP-62, 1.27 µM (inactive); in the assay on KM12, 0.201 µM (active). The GI50 in the assay on MDA-MB-231 was 0.741 µM (active); in the assay with NCI-H23 it was 2.36 µM (inactive); with NCI-H460, 0.426 µM (active); with NCI-H522 it was < 0.0317 µM (active); in the assay on OVCAR-4, 0.902 µM (active); with RPMI-8226 it was 0.429 µM (active). Besides, the 50% growth inhibitory concentration (GI50) in the assay on SF-268 was 0.718 µM (active); with SK-MEL-2 it was 0.244 µM (active); in the assay on SK-MEL-5, 0.323 µM (active); with SN12C, 1.4 µM (inactive); in the assay with SW-620, 0.33 µM (active); with T47D, 0.522 µM (active). Also, the GI50 with TK-10 was 1.21 µM (inactive); in the assay on UACC-62 it was 0.38 µM (active).
For `CCCCCCNCCCNc1c2cc(OC)ccc2nc2cccc([N+](=O)[O-])c12`, the GI50 in the assay with COLO 205 was 0.139 µM (active); with DU-145, 0.0413 µM (active); in the assay with EKVX it was 0.0986 µM (active); in the assay with HCC 2998 it was 0.0203 µM (active); in the assay with HOP-62, 0.0908 µM (active); with KM12 it was 0.144 µM (active). The concentration for 50% growth inhibition (GI50) with MDA-MB-231 is 0.055 µM (active); in the assay with NCI-H23 it was 0.124 µM (active); with NCI-H460 it was 0.0336 µM (active); in the assay with NCI-H522 it was < 0.0195 µM (active); in the assay on OVCAR-4, 0.113 µM (active); in the assay on RPMI-8226, < 0.0289 µM (active). For the same compound, the GI50 with SF-268 is 0.0731 µM (active); in the assay with SK-MEL-2 it was 0.0764 µM (active); in the assay with SK-MEL-5, < 0.0385 µM (active); with SN12C, 0.0787 µM (active); in the assay with SW-620, < 0.0233 µM (active); in the assay on T47D it was 0.109 µM (active). The 50% growth inhibitory concentration (GI50) was 0.131 µM (active) in the assay on TK-10 and 0.143 µM (active) with UACC-62.
`CCCC[C@H]1C(=O)O[C@H](C)[C@H](NC(=O)c2cccc(NC=O)c2OC)C(=O)O[C@@H](C)[C@@H]1OC(=O)C(C)CC.CCCC[C@H]1C(=O)O[C@H](C)[C@H](NC(=O)c2cccc(NC=O)c2OC)C(=O)O[C@@H](C)[C@@H]1OC(=O)CC(C)C` (stereo not given in full): the GI50 is 11.7 µM (inactive) in the assay on COLO 205; 13.4 µM (inactive) in the assay with DU-145; 11 µM (inactive) in the assay on EKVX; 29 µM (inactive) in the assay with HCC 2998; 17.8 µM (inactive) in the assay on HOP-62; 11.6 µM (inactive) with KM12. The GI50 with MDA-MB-231 is 12.1 µM (inactive); with NCI-H23, 7.36 µM (inactive); in the assay with NCI-H460, 5.35 µM (inactive); with NCI-H522, 8.51 µM (inactive); in the assay with OVCAR-4, 7.94 µM (inactive); with RPMI-8226, 10.2 µM (inactive). In addition, the GI50 is 14.2 µM (inactive) with SF-268; 6.07 µM (inactive) in the assay with SK-MEL-2; 12 µM (inactive) with SK-MEL-5; 17.3 µM (inactive) with SN12C; 20.3 µM (inactive) in the assay with SW-620; 14 µM (inactive) in the assay on T47D. In addition, the GI50 was 12.9 µM (inactive) in the assay on TK-10 and 7.14 µM (inactive) in the assay with UACC-62.
With `CCCCC(=O)OC[n+]1ccc(-c2c(COC(=O)NC(C)C)c(COC(=O)NC(C)C)c3n2CCC3)cc1`, the GI50 was > 80.9 µM (inactive) in the assay with COLO 205; > 70.5 µM (inactive) with DU-145; > 100 µM (inactive) with EKVX; > 100 µM (inactive) in the assay with HCC 2998; > 59.6 µM (inactive) in the assay on HOP-62; > 100 µM (inactive) in the assay with KM12. Moreover, the GI50 in the assay with MDA-MB-231 was > 67.6 µM (inactive); in the assay on NCI-H23 it was 53.6 µM (inactive); with NCI-H460, 42.3 µM (inactive); with NCI-H522, 30.5 µM (inactive); with OVCAR-4, > 100 µM (inactive); in the assay on RPMI-8226 it was > 68.7 µM (inactive). Besides, the GI50 in the assay with SF-268 was 57.9 µM (inactive); with SK-MEL-2 it was > 100 µM (inactive); in the assay with SK-MEL-5, > 100 µM (inactive); in the assay on SN12C, 40.3 µM (inactive); in the assay with SW-620, > 76.2 µM (inactive); in the assay on T47D, > 100 µM (inactive). For the same compound, the GI50 in the assay with TK-10 was > 100 µM (inactive); in the assay on UACC-62 it was 30.9 µM (inactive).
For the compound `COc1cc(O)c2c(=O)c3c(C)cccc3n(C)c2c1`, the GI50 in the assay on COLO 205 was > 10 µM (inactive); in the assay on DU-145, > 10 µM (inactive); in the assay with EKVX it was 4.17 µM (inactive); with HCC 2998 it was > 10 µM (inactive); with HOP-62, > 10 µM (inactive); in the assay on KM12 it was > 10 µM (inactive). In addition, the GI50 in the assay with MDA-MB-231, in the assay on NCI-H23, in the assay on NCI-H460, in the assay with NCI-H522, with OVCAR-4 and in the assay with RPMI-8226 was > 10 µM (inactive) each time. The GI50 in the assay on SF-268, with SK-MEL-2, in the assay on SK-MEL-5, in the assay with SN12C, in the assay on SW-620 and in the assay on T47D was > 10 µM (inactive) each time. Further, the GI50 in the assay on TK-10 and with UACC-62 was > 10 µM (inactive) in each case.
On to `CC1(C)OC(=O)N(c2ccccc2)C12C=Cc1cc([N+](=O)[O-])ccc1O2` (stereo not given), for which the GI50 in the assay with COLO 205 was 45.3 µM (inactive); with DU-145 it was 29.4 µM (inactive); with EKVX it was 23.8 µM (inactive); in the assay with HCC 2998 it was 29.2 µM (inactive); in the assay with HOP-62, 32.1 µM (inactive); with KM12 it was 56.6 µM (inactive). For the same compound, the GI50 with MDA-MB-231 is 19.4 µM (inactive); with NCI-H23, 36.2 µM (inactive); in the assay with NCI-H460, 49.9 µM (inactive); with NCI-H522, 25.8 µM (inactive); in the assay on OVCAR-4, 61.8 µM (inactive); in the assay with RPMI-8226, 48.5 µM (inactive). Further, the GI50 with SF-268 was 51.1 µM (inactive); with SK-MEL-2, 33.4 µM (inactive); with SK-MEL-5, 36.4 µM (inactive); in the assay with SN12C, 56.5 µM (inactive); with SW-620, 65.6 µM (inactive); with T47D it was 33 µM (inactive). Further, the GI50 was 39.4 µM (inactive) in the assay with TK-10 and 31.3 µM (inactive) with UACC-62.
On to `CC(=O)n1[nH]c(=O)n(-c2ccc(Cl)cc2)c1=O`, for which the GI50 with COLO 205, in the assay with DU-145, in the assay with EKVX, with HCC 2998, with HOP-62 and with KM12 was > 100 µM (inactive) in each case. In addition, the GI50 in the assay on MDA-MB-231, in the assay on NCI-H23, with NCI-H460, in the assay on NCI-H522, in the assay with OVCAR-4 and in the assay with RPMI-8226 was > 100 µM (inactive) each time. The GI50 in the assay with SF-268, in the assay on SK-MEL-2, with SK-MEL-5, with SN12C, with SW-620 and with T47D was > 100 µM (inactive) throughout. Also, the GI50 in the assay on TK-10 and in the assay with UACC-62 was > 100 µM (inactive) in each case.
For the compound `CC(=O)NC1C(O)C(O)C(CO)OC1n1nc(SCc2ccccc2)c(=O)[nH]c1=O` (stereo not given), the GI50 in the assay on COLO 205, with DU-145, with EKVX, with HCC 2998, with HOP-62 and in the assay with KM12 was > 100 µM (inactive) each time. Moreover, the GI50 with MDA-MB-231, in the assay with NCI-H23, with NCI-H460, in the assay with NCI-H522, with OVCAR-4 and in the assay on RPMI-8226 was > 100 µM (inactive) each time. In addition, the GI50 in the assay with SF-268, with SK-MEL-2, in the assay on SK-MEL-5, in the assay on SN12C, in the assay with SW-620 and in the assay with T47D was > 100 µM (inactive) in each case. Moreover, the GI50 in the assay with TK-10 and with UACC-62 was > 100 µM (inactive) each time.
As for `N=C1CCCC1C(=S)SCCC(N)=O` (stereo not given), the GI50 in the assay on COLO 205, with DU-145, in the assay with EKVX, in the assay on HCC 2998, in the assay on HOP-62 and in the assay with KM12 was > 100 µM (inactive) each time. For the same compound, the GI50 in the assay on MDA-MB-231, in the assay with NCI-H23, with NCI-H460, in the assay with NCI-H522, with OVCAR-4 and with RPMI-8226 was > 100 µM (inactive) throughout. The GI50 with SF-268, in the assay with SK-MEL-2, with SK-MEL-5, in the assay on SN12C, with SW-620 and with T47D was > 100 µM (inactive) in each case. For the same compound, the GI50 in the assay on TK-10 and with UACC-62 was > 100 µM (inactive) throughout.
On to `O=C(/C=C/c1ccccc1Br)c1ccccc1`, for which the GI50 in the assay on COLO 205 was 14.5 µM (inactive); in the assay on DU-145, 8.07 µM (inactive); in the assay with EKVX it was 13 µM (inactive); with HCC 2998, 2.89 µM (inactive); with HOP-62, 13.4 µM (inactive); in the assay on KM12, 2.14 µM (inactive). The GI50 with MDA-MB-231 was 13.2 µM (inactive); with NCI-H23 it was 4.39 µM (inactive); with NCI-H460 it was 4.37 µM (inactive); in the assay with NCI-H522 it was 2.65 µM (inactive); in the assay with OVCAR-4 it was 1.77 µM (inactive); in the assay on RPMI-8226, 3.01 µM (inactive). The GI50 was 3.58 µM (inactive) in the assay on SF-268; 15.7 µM (inactive) in the assay with SK-MEL-2; 9.31 µM (inactive) with SK-MEL-5; 9.84 µM (inactive) with SN12C; 1.58 µM (inactive) in the assay on SW-620; 4.52 µM (inactive) with T47D. In addition, the GI50 in the assay with TK-10 is 2.17 µM (inactive); in the assay on UACC-62, 11.4 µM (inactive).

In general, GI50 refers to the concentration giving 50% growth inhibition.
